# Reference: BindingDB's records for doi:10.1021/jm980621r (Ligand Pharmaceuticals, 1999)
# Experiments:
# [1] = biological target: T1, Retinoic acid receptor RXR-beta (Homo sapiens, UniProt P28702); test: Transcriptional activity was evaluated in CV-1 cells transfected with expression vector for Retinoic acid receptor RXR-beta
# T1 sequence (P28702 whole entry): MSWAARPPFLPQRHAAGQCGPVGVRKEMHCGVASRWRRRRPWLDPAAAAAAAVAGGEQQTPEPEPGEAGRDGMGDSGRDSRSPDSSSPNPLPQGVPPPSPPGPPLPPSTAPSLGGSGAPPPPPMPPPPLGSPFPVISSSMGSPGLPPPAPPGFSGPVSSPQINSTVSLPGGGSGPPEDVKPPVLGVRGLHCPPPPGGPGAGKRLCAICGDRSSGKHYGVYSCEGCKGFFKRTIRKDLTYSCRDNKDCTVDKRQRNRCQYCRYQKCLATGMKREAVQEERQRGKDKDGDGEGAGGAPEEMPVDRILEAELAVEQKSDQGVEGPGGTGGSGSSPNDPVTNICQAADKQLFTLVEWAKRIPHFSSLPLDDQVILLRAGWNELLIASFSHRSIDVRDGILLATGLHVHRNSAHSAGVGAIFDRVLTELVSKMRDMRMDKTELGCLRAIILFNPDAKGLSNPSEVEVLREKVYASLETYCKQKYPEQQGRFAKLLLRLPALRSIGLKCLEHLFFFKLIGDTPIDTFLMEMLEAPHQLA
# [2] = biological target: T2, Retinoic acid receptor RXR-alpha (Homo sapiens, UniProt P19793); test: Transcriptional activity was evaluated in CV-1 cells transfected with expression vector for Retinoic acid receptor RXR-alpha
# T2 sequence (P19793 whole entry): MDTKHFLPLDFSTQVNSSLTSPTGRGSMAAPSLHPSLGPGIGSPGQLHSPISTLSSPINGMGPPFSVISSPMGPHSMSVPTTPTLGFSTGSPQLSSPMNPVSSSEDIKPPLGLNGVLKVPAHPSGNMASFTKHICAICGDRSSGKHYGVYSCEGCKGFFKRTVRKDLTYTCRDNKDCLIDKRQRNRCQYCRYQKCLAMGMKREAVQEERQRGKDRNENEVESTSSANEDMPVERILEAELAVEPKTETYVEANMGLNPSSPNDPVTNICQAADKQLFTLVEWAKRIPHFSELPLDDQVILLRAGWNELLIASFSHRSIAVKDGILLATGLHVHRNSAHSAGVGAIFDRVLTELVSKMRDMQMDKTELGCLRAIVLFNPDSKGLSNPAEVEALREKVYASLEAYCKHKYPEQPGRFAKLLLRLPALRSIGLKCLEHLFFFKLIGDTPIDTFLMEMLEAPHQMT
# [3] = biological target: T1, Retinoic acid receptor RXR-beta; test: Binding affinity towards recombinantly expressed Retinoic acid receptor RXR-beta in baculoviral system, by using 5 nM [3H]targretin in a competitive binding assay
# [4] = biological target: T3, Retinoic acid receptor RXR-gamma (Homo sapiens, UniProt P48443); test: Transcriptional activity was evaluated in CV-1 cells transfected with expression vector for Retinoic acid receptor RXR-gamma
# T3 sequence (P48443 whole entry): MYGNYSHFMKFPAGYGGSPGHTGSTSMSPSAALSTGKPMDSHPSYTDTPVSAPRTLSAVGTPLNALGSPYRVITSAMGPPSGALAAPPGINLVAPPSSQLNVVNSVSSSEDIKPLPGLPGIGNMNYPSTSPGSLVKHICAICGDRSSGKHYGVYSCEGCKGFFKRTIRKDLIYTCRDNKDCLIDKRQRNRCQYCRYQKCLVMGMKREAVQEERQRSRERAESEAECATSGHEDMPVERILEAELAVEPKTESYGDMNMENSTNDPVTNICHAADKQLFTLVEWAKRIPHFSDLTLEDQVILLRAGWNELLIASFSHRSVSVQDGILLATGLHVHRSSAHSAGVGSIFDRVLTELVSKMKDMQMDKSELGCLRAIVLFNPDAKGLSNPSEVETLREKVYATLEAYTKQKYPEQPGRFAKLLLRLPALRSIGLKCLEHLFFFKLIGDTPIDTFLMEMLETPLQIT
structure (smiles),measurement,setting,value
CCO/N=C(/c1ccc(C(=O)O)cc1)c1cc2c(cc1C)C(C)(C)CCC2(C)C,EC50,[1],165 nM
same,EC50,[2],46 nM
same,Ki,[3],120 nM
same,EC50,[4],34 nM
